Read-outs that look alike come from different tables or passages of the source.
What was measured:
MMP-2 = biological target: T1, MMP-2 (Homo sapiens, UniProt P08253); experiment: In-vitro fluorescence assay of MMP-2 activity; format: biochemical; conditions: recombinant human MMP-2; read-out: MMP-2 IC50
T1 construct: purchased Oncogene Research Products (Calbiochem) PF023
T1 sequence (P08253 110-660): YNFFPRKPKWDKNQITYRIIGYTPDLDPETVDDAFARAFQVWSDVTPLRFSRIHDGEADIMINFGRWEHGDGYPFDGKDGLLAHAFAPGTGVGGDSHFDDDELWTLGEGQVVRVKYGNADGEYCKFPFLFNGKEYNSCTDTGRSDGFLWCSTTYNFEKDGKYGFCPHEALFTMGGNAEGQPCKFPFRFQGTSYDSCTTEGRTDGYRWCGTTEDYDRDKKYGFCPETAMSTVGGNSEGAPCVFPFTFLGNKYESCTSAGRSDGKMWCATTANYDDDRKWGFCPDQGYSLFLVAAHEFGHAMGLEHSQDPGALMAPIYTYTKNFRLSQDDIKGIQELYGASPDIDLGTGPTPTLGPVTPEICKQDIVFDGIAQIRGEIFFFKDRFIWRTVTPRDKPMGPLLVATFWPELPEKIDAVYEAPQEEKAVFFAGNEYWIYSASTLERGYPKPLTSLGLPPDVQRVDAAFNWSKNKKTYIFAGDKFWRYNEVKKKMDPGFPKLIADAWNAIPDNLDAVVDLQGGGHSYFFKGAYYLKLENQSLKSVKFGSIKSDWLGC

MMP-13 = biological target: T2, MMP-13 (Homo sapiens, UniProt P45452); experiment: In-vitro fluorescence assay of MMP-13 activity; format: biochemical
T2 construct: made in house

[1] = recombinant human catalytic domain of MMP-13, read-out: MMP-13 IC50

Row | Structure (SMILES) | IC50 (MMP-2) [nM] | IC50 (MMP-13; MMP-13 IC50, recombinant human catalytic domain of MMP-13) [nM] | IC50 (MMP-13; [1]) [nM]
1 | Cc1c(C(=O)Nc2ccc(-c3ccc(S(=O)(=O)N[C@H](C(=O)O)C(C)C)cc3)cc2)oc2cccc(N3CCOCC3)c12 [Example 114, (S)-3-methyl-2-{4′-[(3-methyl-4-morpholin-4-yl-benzofuran-2-carbonyl)-amino]-biphenyl-4-sulfonylamino}-butyric acid] | 1630 | 32 | 
2 | CCc1cccc2oc(C(=O)Nc3ccc(-c4ccc(S(=O)(=O)N[C@H](C(=O)O)C(C)C)cc4)cc3)c(C)c12 [Example 87, N-[(4′-{[(4-Ethyl-3-methyl-1-benzofuran-2-yl)carbonyl]amino}-1,1′-biphenyl-4-yl)sulfonyl]-L-valine] | 1410 |  | 2.3
3 | CC(C)[C@@H](NS(=O)(=O)c1ccc(-c2ccc(OCc3nc4ccccc4n3C)cc2)cc1)C(=O)O [Example 138, D-3-Methyl-2-[4′-(1-methyl-1H-benzoimidazol-2-ylmethoxy)-biphenyl-4-sulfonylamino]-butyric acid] | 1120 |  | 89.3
4 | Cc1c(COc2ccc(-c3ccc(S(=O)(=O)N[C@@H](C(=O)O)C(C)C)cc3)cc2)oc2ccc(Br)c(OC(C)C)c12 [Example 149, N-({4′-[(5-Bromo-4-isopropoxy-3-methyl-1-benzofuran-2-yl)methoxy]-1,1′-biphenyl-4-yl}sulfonyl)-D-valine] | 375 |  | 7.9
5 | Cc1c(C(=O)Nc2ccc(-c3ccc(S(=O)(=O)N[C@H](C(=O)O)C(C)C)cc3)cc2)oc2cccc(OCc3cccnc3)c12 [Example 160, L-3-Methyl-2-(4′-{[3-methyl-4-(pyridin-3-ylmethoxy)-benzofuran-2-carbonyl]-amino}-biphenyl-4-sulfonylamino)-butyric acid] | 4550 |  | 9.5
6 | CC(C)C[C@H](NS(=O)(=O)c1ccc(-c2ccc(NC(=O)c3cc4ccccc4o3)cc2)cc1)C(=O)O [Example 18, N-({4′-[(1-Benzofuran-2-ylcarbonyl)amino]-1,1′-biphenyl-4-yl}sulfonyl)-L-leucine] | 8.4 |  | 2.2
7 | COc1c(Br)ccc2oc(CNc3ccc(-c4ccc(S(=O)(=O)N[C@H](C(=O)O)C(C)C)cc4)cc3)c(C)c12 [Example 150, N-[(4′-{[(5-bromo-4-methoxy-3-methyl-1-benzofuran-2-yl)methyl]amino}-1,1′-biphenyl-4-yl)sulfonyl]-L-valine] | 198 |  | 8.1
8 | COC(=O)COc1cccc2oc(C(=O)Nc3ccc(-c4ccc(S(=O)(=O)N[C@H](C(=O)O)C(C)C)cc4)cc3)c(C)c12 [Example 158, L-2-{4′-[(4-Methoxycarbonylmethoxy-3-methyl-benzofuran-2-carbonyl)-amino]-biphenyl-4-sulfonylamino}-3-methyl-butyric acid] | 1840 |  | 8.7
9 | Cc1c(C(=O)Nc2ccc(-c3ccc(S(=O)(=O)N[C@H](C(=O)O)C(C)C)cc3)cc2)oc2cccc(CCC(C)(C)C)c12 [Example 57, L-2-(4′-{[^4-(3,^3-Dimethyl-butyl)-3-methyl-benzofuran-2-carbonyl]-amino}-biphenyl-4-sulfonylamino)-3-methyl-butyric acid] | 7000 |  | 93
10 | CCn1c(C(=O)Nc2ccc(-c3ccc(S(=O)(=O)N[C@H](C(=O)O)C(C)C)cc3)nc2)nc2ccccc21 [Example 162, L-2-(4-{5-[(1-Ethyl-1H-benzimidazole-2-carbonyl)-amino]-pyridin-2-yl}-benzenesulfonylamino)-3-methyl-butyric acid] | 2610 |  | 85
11 | CCc1ccc2oc(C(=O)Nc3ccc(-c4ccc(S(=O)(=O)N[C@H](C(=O)O)C(C)C)cc4)cc3)c(C)c2c1OC(C)C [Example 88, N-[(4′-{[(5-Ethyl-4-isopropoxy-3-methyl-1-benzofuran-2-yl)carbonyl]amino}-1,1′-biphenyl-4-yl)sulfonyl]-L-valine] | 7000 |  | 27
12 | CCc1c(C(=O)Nc2ccc(-c3ccc(S(=O)(=O)N[C@H](C(=O)O)C(C)C)cc3)cc2)oc2ccccc12 [Example 58, L-2-{4′-[(3-Ethyl-benzofuran-2-carbonyl)-amino]-biphenyl-4-sulfonylamino}-3-methyl-butyric acid] | 1770 |  | 56
13 | Cc1c(C(=O)Nc2ccc(-c3ccc(S(=O)(=O)N[C@H](C(=O)O)C(C)O)cc3)nc2)oc2cccc(NS(C)(=O)=O)c12 (stereo partly drawn) [Example 38, L-3-Hydroxy-2-(4-{5-[(4-methanesulfonylamino-3-methyl-benzofuran-2-carbonyl)-amino]-pyridin-2-yl}-benzenesulfonylamino)-butyric acid] | 8890 |  | 28
14 | Cc1c(C(=O)Nc2ccc(-c3ccc(S(=O)(=O)N[C@H](C(=O)O)C(C)C)cc3)cc2)oc2cccc(OCc3ccncc3)c12 [Example 179, (S)-3-Methyl-2-(4′-{[3-methyl-4-(pyridin-4-ylmethoxy)-benzofuran-2-carbonyl]-amino}-biphenyl-4-sulfonylamino)-butyric acid] | 4000 |  | 7.1
15 | Cc1c(C(=O)Nc2ccc(-c3ccc(S(=O)(=O)N[C@H](C(=O)O)C(C)C)cc3)cc2)oc2cccc(OCCNC(=O)OC(C)(C)C)c12 [Example 177, (S)-2-(4′-{[4-(2-tert-Butoxycarbonylamino-ethoxy)-3-methyl-benzofuran-2-carbonyl]-amino}-biphenyl-4-sulfonylamino)-3-methyl-butyric acid] | 3000 |  | 15
16 | CCS(=O)(=O)Nc1cccc2oc(C(=O)Nc3ccc(-c4ccc(S(=O)(=O)N[C@H](C(=O)O)C(C)C)cc4)cc3)c(C)c12 [Example 68, L-2-{4′-[(4-Ethanesulfonylamino-3-methyl-benzofuran-2-carbonyl)-amino]-biphenyl-4-sulfonylamino}-3-methyl-butyric acid] | 1650 |  | 12
17 | Cc1c(C(=O)Nc2ccc(-c3ccc(S(=O)(=O)N[C@H](C(=O)O)C(C)C)cc3)cc2)oc2cccc(CCC3CC3)c12 [Example 24, L-2-(4′-{[4-(2-Cyclopropyl-ethyl)-3-methyl-benzofuran-2-carbonyl]-amino}-biphenyl-4-sulfonylamino)-3-methyl-butyric acid] | 8000 |  | 24
18 | Cc1c(C(=O)Nc2ccc(-c3ccc(S(=O)(=O)N[C@H](C(=O)O)C(C)C)cc3)cc2)oc2cccc(NS(=O)(=O)c3ccccc3)c12 [Example 71, L-2-{4′-[(4-Benzenesulfonylamino-3-methyl-benzofuran-2-carbonyl)-amino]-biphenyl-4-sulfonylamino}-3-methyl-butyric acid] | 6020 |  | 8.1

Second part, the molecule after the results:

Row | IC50 (MMP-2) [nM] | IC50 (MMP-13; MMP-13 IC50, recombinant human catalytic domain of MMP-13) [nM] | IC50 (MMP-13; [1]) [nM] | Structure (SMILES)
19 | 4 |  | 1.3 | CC(=O)Nc1ccc2oc(C(=O)Nc3ccc(-c4ccc(S(=O)(=O)NC(C(=O)O)C(C)C)cc4)cc3)cc2c1 (stereo in doubt) [Example 9, N-{[4′-({[5-(acetylamino)-1-benzofuran-2-yl]carbonyl}amino)-1,1′-biphenyl-4-yl]sulfonyl}-L-valine]
20 | 3.3 |  | 0.7 | CC(C)[C@H](NS(=O)(=O)c1ccc(-c2ccc(NC(=O)c3cc4cc([N+](=O)[O-])ccc4o3)cc2)cc1)C(=O)O [Example 6, N-[(4′-{[(5-nitro-1-benzofuran-2-yl)carbonyl]amino}-1,1′-biphenyl-4-yl)sulfonyl]-L-valine]
21 | 5.8 |  | 3.1 | CC(C)[C@H](NS(=O)(=O)c1ccc(-c2ccc(NC(=O)c3cc(-c4ccc(Cl)cc4)no3)cc2)cc1)C(=O)O [Example 166, (S)-2-(4′-{[3-(4-Chloro-phenyl)-isoxazole-5-carbonyl]-amino}-biphenyl-4-sulfonylamino)-3-methyl-butyric acid]
22 | 886 |  | 8 | CNc1cccc2oc(C(=O)Nc3ccc(-c4ccc(S(=O)(=O)N[C@H](C(=O)O)C(C)C)cc4)cc3)c(C)c12 [Example 60, L-3-Methyl-2-{4′-[(3-methyl-4-methylamino-benzofuran-2-carbonyl)-amino]-biphenyl-4-sulfonylamino}-butyric acid]
23 | 149 |  | 6.2 | CC(C)[C@H](NS(=O)(=O)c1ccc(-c2ccc(NC(=O)c3cc4ccccc4s3)cc2)cc1)C(=O)O [Example 12, 4′-[(Benzo[β]thiophene-2-carbonyl)-amino]-biphenyl-4-sulfonyl-L-valine]
24 | 13300 |  | 13 | Cc1c(C(=O)Nc2ccc(-c3ccc(S(=O)(=O)N[C@H](C(=O)O)C(C)C)cc3)cc2)oc2cccc(-c3nn[nH]n3)c12 [Example 56, L-3-Methyl-2-(4′-{[3-methyl-4-(2H-tetrazol-5-yl)-benzofuran-2-carbonyl]-amino}-biphenyl-4-sulfonylamino)-butyric acid]
25 | 25.9 |  | 2 | CC(C)[C@H](NS(=O)(=O)c1ccc(-c2ccc(NC(=O)c3nc4cc(Cl)ccc4s3)cc2)cc1)C(=O)O [Example 130, (S)-3-Methyl-2-{4′-[(5-chloro-benzothiazole-2-carbonyl)-amino]-biphenyl-4-sulfonylamino}-butyric acid]
26 | 1150 |  | 4.8 | Cc1cccc2oc(C(=O)Nc3ccc(-c4ccc(S(=O)(=O)N[C@H](C(=O)O)C(C)C)cc4)cc3)c(C)c12 [Example 93, N-[(4′-{[(3,4-Dimethyl-1-benzofuran-2-yl)carbonyl]amino}-1,1′-biphenyl-4-yl)sulfonyl]-L-valine]
